# Laboratory results: ChEMBL document CHEMBL5247617, “4-Arylthiosemicarbazide derivatives - Pharmacokinetics, toxicity and anti-Toxoplasma gondii activity in vivo” (Eur J Med Chem, 2022)
# Active and inactive are the calls of the source. The calls are words filed in the database; no cut-off is given here.
# Assays:
# [1] = AUC in BALB/c mouse brain at 50 mg/kg, po measured upto 24 hrs by LC-MS/MS analysis; assay type: ADME, organism-based; design: dose 50 mg/kg, time < 24 hrs, route po
# [2] = Toxicity in BALB/c mouse assessed as increase in serum ALT level at 50 mg/kg, po administered for 5 days and measured after 14 days by ELISA method; assay type: organism-based; conditions: in vivo, 120 h, time 5 day
# Toxoplasma gondii [3] = experiment: Antiparasitic activity against Toxoplasma gondii RH infected in BALB/c mouse assessed as reduction in number of bradyzoite gene copies in muscles at 25 mg/kg, po administered every 24 hrs for 5 days starting from 24 hrs post infection by real-time qPCR analysis; assay type: functional; conditions: time 5 day
# [4] = AUC in BALB/c mouse brain at 25 mg/kg, po measured upto 24 hrs by LC-MS/MS analysis; assay type: ADME, organism-based; design: time < 24 hrs, dose 25 mg/kg, route po
# [5] = Cmax in BALB/c mouse brain at 50 mg/kg, po measured upto 24 hrs by LC-MS/MS analysis; assay type: ADME, organism-based; design: time < 24 hrs, dose 50 mg/kg, route po; conditions: in vivo
# Toxoplasma gondii [6] = experiment: Antiparasitic activity against Toxoplasma gondii RH infected in BALB/c mouse assessed as prolongation of animal survival at 25 to 50 mg/kg, po administered for 5 days starting from 24 hrs post infection by Kaplan-Meier method; assay type: functional, organism-based; conditions: dose 25-50 mg/kg, time 5.0 day
# Toxoplasma gondii [7] = experiment: Antiparasitic activity against Toxoplasma gondii RH infected in BALB/c mouse assessed as decrease in number of bradyzoite gene copies in brain at 50 mg/kg, po administered every 24 hrs for 5 days starting from 24 hrs post infection by real-time qPCR analysis; assay type: functional, organism-based; conditions: time 5.0 day
# [8] = Toxicity in BALB/c mouse assessed as changes in size of hepatocyte nuclei at 50 mg/kg, po administered for 5 days and measured after 14 days by hematoxylin-eosin staining based microscopic analysis; assay type: organism-based; conditions: hepatocytes, 120 h, time 5 day
# [9] = Elimination half-life in BALB/c mouse brain at 50 mg/kg, po measured upto 24 hrs by LC-MS/MS analysis; assay type: ADME, organism-based; conditions: read-out: beta t1/2 (converted)
# [10] = Oral bioavailability in BALB/c mouse serum at 50 mg/kg measured upto 60 mins by LC-MS/MS analysis; assay type: ADME, organism-based
# Toxoplasma gondii [11] = experiment: Antiparasitic activity against Toxoplasma gondii RH infected in BALB/c mouse assessed as reduction of daughter tachyzoites in blood at 25 to 50 mg/kg, po administered for 5 days starting from 24 hrs post infection by real-time qPCR analysis; assay type: functional, organism-based; conditions: dose 25-50 mg/kg, time 5.0 day
# [12] = Toxicity in BALB/c mouse assessed as changes in creatinine level at 50 mg/kg, po administered for 5 days and measured on day 1 and day 14 by colorimetric assay; assay type: organism-based; conditions: in vivo, 120 h, time 5 day
# [13] = Oral bioavailability in BALB/c mouse brain at 25 mg/kg measured upto 24 hrs by LC-MS/MS analysis; assay type: ADME, organism-based
# [14] = Toxicity in BALB/c mouse assessed as changes in size of hepatocyte nuclei at 50 mg/kg, po administered for 5 days and measured after 1 day by hematoxylin-eosin staining based microscopic analysis; assay type: organism-based; conditions: hepatocytes, 120 h, time 5 day
# Toxoplasma gondii [15] = experiment: Antiparasitic activity against Toxoplasma gondii RH infected in BALB/c mouse assessed as survival rate at 50 mg/kg, po administered every 12 hrs for 5 days starting from 24 hrs post infection by Kaplan-Meier method; assay type: functional; conditions: 120 h, time 5 day
# [16] = Cmax in BALB/c mouse brain at 25 mg/kg, po measured upto 24 hrs by LC-MS/MS analysis; assay type: ADME, organism-based; design: time < 24 hrs, dose 25 mg/kg, route po; conditions: in vivo
# [17] = Oral bioavailability in BALB/c mouse brain at 50 mg/kg measured upto 24 hrs by LC-MS/MS analysis; assay type: ADME, organism-based
# [18] = Toxicity in BALB/c mouse assessed as changes in liver weight at 50 mg/kg, po administered for 5 days and measured after 14 days; assay type: organism-based; conditions: in vivo, 120 h, time 5 day
# [19] = Toxicity in BALB/c mouse assessed as changes in body weight at 1000 mg/kg, po administered once and observed for 10 days; assay type: organism-based; conditions: in vivo, 240 h, time 10 day
# [20] = Toxicity in BALB/c mouse assessed as disseminated necrosis of hepatocytes at 50 mg/kg, po administered for 5 days and measured after 14 days by hematoxylin-eosin staining based microscopic analysis; assay type: organism-based; conditions: in vivo, 120 h, time 5 day
# [21] = Cmax in BALB/c mouse serum at 25 mg/kg, po measured upto 60 mins by LC-MS/MS analysis; assay type: ADME, organism-based; design: dose 25 mg/kg, time < 60 min, route po; conditions: in vivo, 1 h
# L929 = experiment: Cytotoxicity against mouse L929 cells assessed as reduction in cell viability incubated for 24 hrs by MTT assay; assay type: toxicity, cell-based; conditions: l929, 24 h
# [22] = Oral bioavailability in BALB/c mouse serum at 25 mg/kg measured upto 60 mins by LC-MS/MS analysis; assay type: ADME, organism-based
# [23] = Elimination half-life in BALB/c mouse serum at 50 mg/kg, po measured upto 60 mins by LC-MS/MS analysis; assay type: ADME, organism-based; conditions: in vivo, 1 h
# Toxoplasma gondii [24] = experiment: Antiparasitic activity against Toxoplasma gondii RH infected in BALB/c mouse assessed as decrease in IFNgamma level in serum at 25 to 50 mg/kg, po administered for 5 days starting from 24 hrs post infection by ELISA method; assay type: functional, organism-based; conditions: dose 25-50 mg/kg, time 5.0 day
# [25] = AUC in BALB/c mouse serum at 25 mg/kg, po measured upto 60 mins by LC-MS/MS analysis; assay type: ADME, organism-based; design: dose 25 mg/kg, time < 60 min, route po; conditions: in vivo, 1 h
# [26] = Elimination half-life in BALB/c mouse serum at 25 mg/kg, po measured upto 60 mins by LC-MS/MS analysis; assay type: ADME, organism-based; conditions: in vivo, 1 h
# Toxoplasma gondii [27] = experiment: Antiparasitic activity against Toxoplasma gondii DX infected in C3H/HeOuJ mouse assessed as prolongation of survival at 25 to 50 mg/kg, po administered for 5 days starting from 24 hrs post infection by Kaplan-Meier method; assay type: functional, organism-based; conditions: dose 25-50 mg/kg, time 5.0 day
# [28] = Elimination half-life in BALB/c mouse brain at 25 mg/kg, po measured upto 24 hrs by LC-MS/MS analysis; assay type: ADME, organism-based; conditions: read-out: beta t1/2 (converted)
# [29] = Tmax in BALB/c mouse serum at 25 mg/kg, po measured upto 60 mins by LC-MS/MS analysis; assay type: ADME, organism-based; conditions: in vivo, 1 h
# [30] = Tmax in BALB/c mouse serum at 50 mg/kg, po measured upto 60 mins by LC-MS/MS analysis; assay type: ADME, organism-based; conditions: in vivo, 1 h
# [31] = Tmax in BALB/c mouse brain at 50 mg/kg, po measured upto 24 hrs by LC-MS/MS analysis; assay type: ADME, organism-based
# Toxoplasma gondii [32] = experiment: Antiparasitic activity against Toxoplasma gondii RH infected in human Hs27 cells assessed as parasitic growth inhibition incubated for 24 hrs followed by [5,6-3H] uracil addition and measured after 72 hrs by liquid scintillation counter analysis; assay type: functional, organism-based
# [33] = Toxicity in BALB/c mouse assessed as changes in liver weight at 50 mg/kg, po administered for 5 days and measured after 1 day; assay type: organism-based; conditions: in vivo, 120 h, time 5 day
# Toxoplasma gondii [34] = experiment: Antiparasitic activity against Toxoplasma gondii RH infected in BALB/c mouse assessed as reduction of bradyzoite gene copies in heart at 50 mg/kg, po administered every 12 and 24 hrs for 5 days starting from 24 hrs post infection by real-time qPCR analysis; assay type: functional, organism-based; conditions: time 5.0 day
# HS27 = experiment: Cytotoxicity against human HS27 cells assessed as reduction in cell viability; assay type: toxicity, cell-based
# [35] = AUC in BALB/c mouse serum at 50 mg/kg, po measured upto 60 mins by LC-MS/MS analysis; assay type: ADME, organism-based; design: time < 60 min, dose 50 mg/kg, route po; conditions: in vivo, 1 h
# [36] = Toxicity in BALB/c mouse assessed as disseminated necrosis of hepatocytes at 50 mg/kg, po administered for 5 days and measured after 1 day by hematoxylin-eosin staining based microscopic analysis; assay type: organism-based; conditions: in vivo, 120 h, time 5 day
# [37] = Toxicity in BALB/c mouse assessed as changes in serum AST level at 50 mg/kg, po administered for 5 days and measured on day 1 and day 14 by ELISA method; assay type: organism-based; conditions: in vivo, 120 h, time 5 day
# [38] = Toxicity in BALB/c mouse assessed as changes in body weight at 25 to 50 mg/kg, po administered for 5 days and measured on day 1 and day 14; assay type: organism-based; conditions: in vivo, 120 h, dose 25-50 mg/kg, time 5 day
# [39] = Tmax in BALB/c mouse brain at 25 mg/kg, po measured upto 24 hrs by LC-MS/MS analysis; assay type: ADME, organism-based
# [40] = Cmax in BALB/c mouse serum at 50 mg/kg, po measured upto 60 mins by LC-MS/MS analysis; assay type: ADME, organism-based; design: time < 60 min, dose 50 mg/kg, route po; conditions: in vivo, 1 h
smiles,measurement,setting,value
Cc1nc[nH]c1C(=O)NNC(=S)Nc1cccc(I)c1,AUC at 24 h,[1],0.167 µg·h/mL
same,Activity,[2],Toxic
same,Activity,Toxoplasma gondii [3],16
same,AUC at 24 h,[4],0.0699 µg·h/mL
same,Cmax,[5],174.33 ng/mg
same,Activity,Toxoplasma gondii [6],Active
same,Activity,Toxoplasma gondii [7],Active
same,Activity,[8],Toxic
same,half-life,[9],45.6 min
same,bioavailability,[10],17%
same,Activity,Toxoplasma gondii [11],Active
same,Activity,[12],Non-Toxic
same,bioavailability,[13],0.46%
same,Activity,[14],Toxic
same,survival at 50 mg/kg,Toxoplasma gondii [15],20%
same,Cmax,[16],94.16 ng/mg
same,bioavailability,[17],0.98%
same,Activity,[18],Non-Toxic
same,Activity,[19],Non-Toxic
same,Activity,[20],Toxic
same,Cmax,[21],30.85 µg/mL
same,CC30,L929,213.27 µM
same,bioavailability,[22],30.1%
same,beta t1/2,[23],23.4 min
same,Activity,Toxoplasma gondii [24],Active
same,AUC,[25],150.55 µg·h/mL
same,beta t1/2,[26],24.6 min
same,Activity,Toxoplasma gondii [27],Active
same,half-life,[28],29.4 min
same,Tmax,[29],15 min
same,Tmax,[30],15 min
same,Tmax,[31],30 min
same,IC50,Toxoplasma gondii [32],25.7 µM
same,Activity,[33],Non-Toxic
same,Activity,Toxoplasma gondii [34],Active
same,CC30,HS27,209.45 µM
same,AUC,[35],170.39 µg·h/mL
same,Activity,[36],Toxic
same,Activity,[37],Non-Toxic
same,Activity,[38],Non-Toxic
same,Tmax,[39],15 min
same,Cmax,[40],35.32 µg/mL
